Target: T1, M71 OR (Mus musculus, UniProt Q60893)
T1 construct: the increase of OSNs expressing the M71 OR results in the coalescence of labeled axons; expressed in transfected cells; host or cells: olfactory sensory neurons of living transgenic mice (4•M71Cα, 5•M71Cα), made by pronuclear injection of the M71 minigene
T1 sequence (Q60893 1-309): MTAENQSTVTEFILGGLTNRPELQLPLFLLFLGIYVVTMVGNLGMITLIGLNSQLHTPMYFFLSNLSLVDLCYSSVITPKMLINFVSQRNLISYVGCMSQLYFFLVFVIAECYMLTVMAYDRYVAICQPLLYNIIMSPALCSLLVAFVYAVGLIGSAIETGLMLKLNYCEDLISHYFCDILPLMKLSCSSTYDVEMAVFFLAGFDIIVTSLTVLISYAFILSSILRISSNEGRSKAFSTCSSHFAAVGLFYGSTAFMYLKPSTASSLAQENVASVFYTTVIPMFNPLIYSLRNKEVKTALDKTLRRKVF
Experiment: Two-bottle discrimination behavioral avoidance task (odor detection threshold) with 24dMACP
Format: in vivo
Experimental: Sensitivity studies performed in Wistar rat neonates and adults have shown that the highest sensitivity to an odor (lowest threshold) correlates with the highest OSN density in the MOE. […] Therefore, it was desirable to assess whether detection of the most robust M71 ligand is amplified in this M71 line. An avoidance task was used in which the odorant 24dMACP is added to drinking water and becomes an aversive stimulus associated with injection of Lithium Chloride (LiCl), a compound known to induce gastric malaise. After conditioning homozygous 4•M71Cα animals and their WT littermates to water containing a 10-4 dilution of 24dMACP, the animals are given the choice between plain water and water with decreasing concentrations of 24dMACP (10^−4, 10^−6, 5×10^−7 and 10^−7). Note that all tested animals are homozygous for M71G, so even WT have a functional M71 OR.
The results are presented as a preference index (PI) for the odorized water for each group of animals which is calculated as the amount of the odorized water consumed divided by the total amount of liquid (odor and no-odor water) consumed over a 24 hr time period (FIG. 3A). A PI of 50% reflects no preference of the animal. […] When presented with 10^−4 and 10^−6 dilutions, both conditioned 4•M71Cα homo and WT animals show a clear aversion towards 24dMACP reflected through an average PI for 24dMACP of about 10%. However, when 24dMACP is delivered at 10^−7 all animals fail to detect the presence of the odor with an average PI of 53.41% for the WT (n=4) and 62.67% for the homozygous animals (n=8).
To compare specific odorant sensitivity between the 5•M71Cα and the 4•M71Cα line, the 2-bottle discrimination behavioral task was performed with 24dMACP as described above (FIG. 3B). […] Even though the same but slightly more significant 0.3 log decrease in odorant detection threshold is observed in the 5•M71Cα line, it is important to mention that 5•M71Cα hemi animals were used which have about 1.6% of their OSNs expressing M71 (similar to the 4•M71Cα homo animals with about 2% M71 expressing OSNs).
Olfactory behavior test: A two-bottle discrimination test was performed as previously described. Since the mice are tested for the ability to detect a single odor in drinking water at increasingly lower concentrations, this discrimination assay is also considered a detection threshold test. Mice 8 weeks old were individually housed and given food ad libitum but restricted access to saccharin-phthalic acid solution (2.1×10^−2 M sodium saccharin and 10^−3M phthalic acid pH 6.5) for 1 h twice a day for two days before the assay begins. This ensures mice would commence drinking the solution during the conditioning. On day 3 (conditioning day) mice are exposed to sodium saccharine phthalic acid (SSPA) solution with 1 dilution of odorized water for 10 minutes. Immediately after, they are injected with lithium chloride intraperitoneally (15 μl/g body weight of a 0.6 M solution) to induce the aversive malaise and lethargy state. After two hours mice are returned to their home cage and given access to two bottles of drinking water; they are given the choice between SSPA solution containing a 10^−4 dilution of the odor versus the non-odorized SSPA solution. During the following 3 days, every 24 hours, the location of the bottles is reversed and the concentration of the odorized solution is decreased to 10^−6, 10^−7 and 0.5×10^−6, respectively. Every day both bottles are weighed to determine the amount of liquid consumed. A preference index was calculated as the amount of odorized solution consumed divided by the total amount of water solution consumed for each mouse for every 24 hour test period at each odor concentration. Student's t test was performed to test statistical significance, assuming two-tailed distribution and two-sample unequal variance. Values are mean±SEM and are plotted on a LOG scale.

CC(=O)c1ccc(C)cc1C [24dMACP, 2,4-dimethyl acetophenone]
average PI (5•M71Cα hemi group, dilution 5×10^−7): 19.62% | decrease in odorant detection threshold (5•M71Cα line vs WT (same as 4•M71Cα line)): 0.3 log | average PI (WT group of the 5•M71Cα experiment, dilution 5×10^−7): 55.32% | average PI (conditioned 4•M71Cα homo and WT animals, 10^−4 and 10^−6 dilutions): about 10% | PI (conditioned 4•M71Cα homozygous mutants, 5×10^−7 dilution): 26.12% | average PI (conditioned 4•M71Cα homozygous, 10^−7 dilution): 62.67% | PI (conditioned WT (littermates of 4•M71Cα), 5×10^−7 dilution): 62.79% | PI (conditioned WT, 10^−4 dilution): 11.84% | average PI (conditioned WT, 10^−7 dilution): 53.41%

— patent US12063914B2, “DNA sequence that increases odorant receptor representation in the olfactory system” (Research Foundation of the City University of New York, priority 2015, dated 2024)
